Assays:
[1] = Body weight loss in Z-138 xenograft study; type: in vivo; settings: 21 days
Experimental: Data presented in this example were determined after analysis of 21 day samples of mantle cell lymphoma tumors. Cmin PK samples were taken prior to the last dose on day 21. Tumors were excised, weighed and processed for methyl mark. Methyl mark reduction was measured in tumor samples and is shown as percent of vehicle control (POC). Both SYM11 and sDMA Elisa were used to measure methyl mark and the data shown is averaged from 10 animals. Tumor growth inhibition was determined using tumor volume reduction at day 21 expressed as a percent of POC. In vivo inhibition curves were also generated and IC50 values determined. Plasma levels from each group are averaged from 5 animals. […] The average body weight loss (BWL) in all groups was <6%. All doses tested show >50% TGI. […] The average BWL in all groups was <4%. The average BWL in all groups was <8%, except in the 100 mg/kg does group were 4 animals exceeded BWL of 15%.

[2] = test system: MDM4 splicing in Z138 cells; experiment: MDM4 splicing analysis (PCR); type: cell-based, Human; settings: Z138 mantle cell lymphoma cells
Experimental: Z138 cells were seeded in 10 cm tissue culture dishes at a density of approximately 3×10^6 cells per dish in a volume of 10 mL IMDM+10% horse serum media. Cells were treated with 200 nM or 1 μM of compound at 0.5% DMSO for 1, 2, or 3 days. Cell pellets were harvested by washing once with PBS, […], centrifuging at 1000×g for 5 minutes, then storing at −80° C. until ready to process.
RNA was extracted from cell pellets. First, pellets were thawed on ice and then quickly resuspended in 500 μL Trizol reagent. Samples were then incubated 2-3 minutes at room temperature and vortexed for 30 sec to completely homogenize the lysate. 50 μL of water and 50 μL of chloroform were added to each Trizol-cell mixture, then each sample was vortexed for 30 sec to mix completely. Samples were loaded onto MaXtract High Density tubes and spun at 14,000 RPM for 5 minutes. The clear supernatant (aqueous phase) from each tube was transferred to a new 2 mL tube and 2× volume of freshly prepared 70% ethanol was added to each sample. Samples were loaded onto RNeasy spin columns (part of Qiagen RNeasy Mini kit). Columns were centrifuged at 9000×g for 15 sec and flow-through was discarded. 350 μL Buffer RW1 was added to each column and samples were centrifuged at […] for 15 sec and flow-through was discarded. […] RNA concentration was analyzed on a Nanodrop. […]

CC(=O)N1CCC(Nc2cc(C(=O)NC[C@H](O)CN3CCc4ccccc4C3)ccn2)CC1 [Formula B]
average body weight loss (BWL) in all groups [1]: < 6%

O=C(NC[C@H](O)CN1CCc2ccccc2C1)c1ccnc(NC2CCC2)c1 [Formula C]
MDM4 splicing [2]: attenuates

Reference: patent US10653693B2, “PRMT5 inhibitors and uses thereof” (Epizyme, Inc., priority 2014, dated 2020)
